In US6894033B2, “Combination therapies using vitamin B12 and therapeutic agents for treatment of viral, proliferative and inflammatory diseases” (Transition Therapeutics Inc., priority 2001, dated 2005):
Where two headings read alike, the source gives them in different places.

What was measured:
ND4 mouse model = test: Clinical signs in the ND4 demyelinating transgenic mouse model; type: in vivo; details: ND4 mice; for mean clinical scores / clinical signs (FIG. 5): intraperitoneal, paclitaxel alone 20 mg/kg once a week, vitamin B12 10 mg/kg once a week, combination with paclitaxel 5 mg/kg three times per week
Excerpt: In this model, the severity of the clinical signs increased until a maximum around 6 months with animals dying around 8 to 9 months of age. Clinical signs assessed included general shaking, seizures, head jerk, hind limb and tail shiver, wobbly gait and limp tail. The scale of zero (absence) to four (constant and uncontrollable movements) was used for each of the clinical signs.
All treatments began when the mice reached 3 months of age at which time signs of demyelinating disease were evident. Treatment was stopped at time of sacrifice.
Treatment was started when the animals were 3 months of age and continued for 11 weeks. The animals were evaluated twice a week for clinical signs and the scores were averaged on a weekly basis. Refer to example 1 for more experimental details.
The severity of the clinical signs increase until a maximum around 6 months with animals dying around 8 to 9 months of age. Clinical signs assessed include general shaking, seizures, head jerk, hind limb and tail shiver, wobbly gait and limp tail. The scale of zero (absence) to four (constant and uncontrollable movements) was used for each of the clinical signs.
Mice (4 animals per group) were treated with vitamin B12 (cyanocobalamin) alone at a dose of 15 mg/kg, weekly and in combination with P-16. P-16 was administered alone and in combination with vitamin B12 at a dose of 1 mg/kg, tri-weekly. All treatments began when the mice reached 3 months of age at which time signs of demyelinating disease were evident. Treatment was stopped at time of sacrifice.
The ND4 transgenic mice received one of the following treatments through intraperitoneal injections: 1) paclitaxel (TAXOL®) at a dose of 20 mg/kg once a week; 2) vitamin B12 at a dose of 10 mg/kg once a week and paclitaxel (TAXOL®) at a dose of 5 mg/kg three times per week; and 3) vitamin B12 at a dose of 10 mg/kg once a week. All treatments started when the mice reached 3 months of age, at which time signs of demyelinating disease were evident.

[1] = mice; doses up to 1 g/kg body weight; cited from earlier work
[2] = test system: Herpes Simplex Virus Type 2 (HSV-2); test: CPE inhibition assay in MRC-5 cells, HSV-2; type: cell-based
[3] = test system: Human Hepatitis B Virus (HBV); test: HBV DNA copies in HepG2.2.15 culture medium by Lightcycler real-time PCR; type: cell-based; details: for Antiviral effect on HBV (HBV DNA copies): HepG2.2.15, 9 days
Protocol: HepG2.2.15 cells, a cell line that was stably transfected with HBV genome, were cultured in RPMI-1640 with fetal bovine serum at either 2 or 4% final concentration and with no antibiotics. The cells were seeded in a 96-well plate at a density of 2×10^4 cells/well and grown overnight. […] Triplicate samples were measured for each concentration. The cells were incubated at 37° C. for 9 days. Drug/medium was changed daily. On day 9, the culture media containing released HBV virions were harvested and used to extract HBV DNA.
HBV DNA from drug-treated HepG2.2.15 cell culture media was extracted using QIAmp DNA mini kit—blood and body fluid spin column according to manufacturer's instructions. Briefly, 10 μl of QIAGEN proteinase K was added to 1.5 ml Eppendorf tube. 50 μl cell supernatant and 50 μl AL buffer were added to the tube. The samples were incubated at 56° C. water bath for 3 h. At the end of incubation, 50 μl ethanol was added to the sample. The mixture was transferred to a QIAamp spin column and centrifuged at 14000 rpm for 1 min. The filtrate was discarded. 50 μl Buffer AW1 was then added to the column and centrifuged at 14000 rpm for 1 min. Following washing and recentrifugation, DNA was eluted in 50 μl dH2O.
HBV DNA was detected by real-time PCR using Lightcycler assay. The reaction was performed in 20 μl, comprising the following: 6.4/4.8 μl dH2O, 2 μl 25 mM MgCl2, 1 μl 10 μM sense primer, 1 μl 10 μM antisense primer, 8/1.6 μl LightCycler Probe (fluorescein-labeled, 5 μM), 0.8/1.6 μl LightCycler Probe 2 (LC Red 640-labeled, 10 μM), 2 μl LC FastStart DNA Master Hyb Probes, 1 μl uracil DNA glycosylase.
PCR mix was aliquoted into glass capillaries and 5 μl DNA template was then added to the PCR mix. A range of HBV plasmid DNA (1×10^8, 1×10^7, 1×10^6, . . . , 1×10^2, 25 copies) was used as standards for quantitative analysis.
The antiviral effects of the test compounds were calculated using DNA copy numbers as an endpoint. Specifically, the antiviral activities were calculated based on the following formula: Antiviral effect=(Ccontrol−Ctest)/Ccontrol whereby the Ccontrol is the HBV DNA copies in the control wells (without drug); the Ctest is the HBV DNA copies in the test wells with a given concentration of a test compound.
The enhancing or antagonistic effect was analyzed mathematically using the median effect equation (Chou and Talalay, 1984) by computer software CalcuSyn (Biosoft, St. Louis).

[4] = rabbits; doses up to 100 mg/kg body weight; cited from earlier work
[5] = test system: Vesticular Stomatitis Virus (VSV); type: cell-based; details: MRC-5; for Anti-viral activity (protection of CPE) / viral activity, VSV: vitamin B12 = hydroxocobalamin (HC)
[6] = Toxicity in the applicant's animal studies; type: in vivo; details: concentrations of 15 mg/kg of vitamin B12 in mice
GFAP [7] = test: GFAP in brain of ND4 mice (immunohistochemistry, slot blot of homogenates); type: in vivo, mouse; details: Vitamin B12 15 mg/kg, Normal 1.0, untreated ND4 4.4
Excerpt: After the various treatments, the mice were sacrificed and brain sections removed for GFAP staining and quantitation. The brain region of hippocampus, adjacent to the dentate gyrus was fixed in formalin, paraffin-embedded and sectioned at 5 μm. Immunohistochemistry with anti-GFAP antibody was used to stain for GFAP. Glial fibrillary acidic protein was a protein expressed by astrocytes (particularly reactive astrocytes) and was used as a marker for these cells.
In addition, quantification of GFAP within the brains of normal, ND4 untreated and ND4 treated mice was carried out to provide a more precise level of protein expression. Whole brain homogenates were assayed for GFAP by slot blot. Brains were homogenized in a buffer containing 50 mM Tris-HCl pH 7.6, 0.5 mM DTT, 1 mM EDTA, and 0.43 mM PMSF. The homogenate was centrifuged at 11000 rpm for 30 min at 4° C. The pellet was isolated and resuspended in a buffer containing 10 mM sodium phosphate pH 7.5, 2 mM DTT, 6 mM urea and 1 mM EDTA. Samples were loaded onto the slot blot apparatus (BioDot, Biorad) under vacuum. The blots were reacted with anti-GFAP antibodies and then a secondary antibody. The blots were developed and the relative amounts of each band quantified.

[8] = test system: Mouse ascite astrocytoma cells; details: overnight, no treatment 0.8955
Protocol: Mouse ascite astrocytoma cells were seeded in a 96-well plate and grown to 60% confluence in standard growth conditions.
96® AQueous One Solution Cell Proliferation Assay was used as a colorimetric method for determining the number of viable cells in proliferations. […] 96® AQueous One Solution Reagent directly to culture wells, incubating for 1-4 hours and then recording absorbance at 490 nm with a 96 well plate reader. The quantity of formazan product as measured by the amount of 490 nm absorbance is known in the art to be directly proportional to the number of living cells in the culture.

GFAP [9] = test: GFAP in brain of EAE mice (immunohistochemistry, slot blot of homogenates); type: in vivo, mouse
Protocol: EAE mice were treated as described previously in Example 2. After the various treatments, the mice were sacrificed and brain sections removed for GFAP staining and quantitation. The brain region of hippocampus, adjacent to the dentate gyrus was fixed in formalin, paraffin-embedded and sectioned at 5 μm. Immunohistochemistry with anti-GFAP antibody was used to stain for GFAP.
In addition, quantification of GFAP within the brains of normal, EAE untreated and EAE treated mice was carried out to provide a more precise level of protein expression. Whole brain homogenates were assayed for GFAP by slot blot. Brains were homogenized in a buffer containing 50 mM Tris-HCl pH 7.6, 0.5 mM DTT, 1 mM EDTA, and 0.43 mM PMSF. The homogenate was centrifuged at 11000 rpm for 30 min at 4° C. The pellet was isolated and resuspended in a buffer containing 10 mM sodium phosphate pH 7.5, 2 mM DTT, 6 mM urea and 1 mM EDTA. Samples were loaded onto the slot blot apparatus (BioDot, Biorad) under vacuum. The blots were reacted with anti-GFAP antibodies and then a secondary antibody. The blots were developed and the relative amounts of each band quantified.

[10] = HC 1 μg/ml, fraction (ODTest−OD0)/(ODControl−OD0)
[11] = Vitamin B12 (methylcobalamin) 25 μg/ml

Molecule: CC(=O)O[C@H]1C(=O)[C@@]2(C)[C@H]([C@H](OC(=O)c3ccccc3)[C@]3(O)C[C@H](OC(=O)[C@H](O)[C@@H](NC(=O)c4ccccc4)c4ccccc4)C(C)=C1C3(C)C)[C@]1(OC(C)=O)CO[C@@H]1C[C@@H]2O [paclitaxel]
- mean clinical scores / clinical signs (FIG. 5) (ND4 mouse model): significant attenuation of mean clinical scores

Molecule: CSTMMSRSHKTRSHHV (Synthetically generated peptide) [P-16]
- clinical signs of MS (FIG. 3) (ND4 mouse model; P-16 1 mg/kg tri-weekly, vitamin B12 (cyanocobalamin) 15 mg/kg weekly): attenuation of clinical signs

Molecule: C/C1=C2/[N-][C@H]([C@H](CC(N)=O)[C@@]2(C)CCC(=O)NC[C@@H](C)OP(=O)([O-])O[C@H]2[C@@H](O)[C@@H](n3cnc4cc(C)c(C)cc43)O[C@@H]2CO)[C@]2(C)N=C(/C(C)=C3N=C(/C=C4N=C1[C@@H](CCC(N)=O)C\4(C)C)[C@@H](CCC(N)=O)[C@]\3(C)CC(N)=O)[C@@H](CCC(N)=O)[C@]2(C)CC(N)=O.[Co+3].[OH-] [HC, hydroxocobalamin]
- acute toxicity [1]: no toxicities were observed
- Antiviral effect on HSV-2 (CPE inhibition) [2, 10]: 0.014
- Antiviral effect on HSV-2 (CPE inhibition) ([2]; HC 10 μg/ml, fraction): 0.032
- Antiviral effect on HSV-2 (CPE inhibition) ([2]; HC 100 μg/ml, fraction): 0.056
- Antiviral effect on HSV-2 (CPE inhibition) ([2]; HC 500 μg/ml, fraction): 0.166
- Antiviral effect on HSV-2 (CPE inhibition) ([2]; HC 1000 μg/ml, fraction): 0.210
- Antiviral effect on HBV (HBV DNA copies) ([3]; HC 1 μg/ml, fraction (Ccontrol−Ctest)/Ccontrol): 0.001
- Antiviral effect on HBV (HBV DNA copies) ([3]; HC 10 μg/ml, fraction): 0.001
- Antiviral effect on HBV (HBV DNA copies) ([3]; HC 100 μg/ml, fraction): 0.001
- Antiviral effect on HBV (HBV DNA copies) ([3]; HC 500 μg/ml, fraction): 0.112
- acute toxicity [4]: no toxicities were observed
- Antiviral effect on VSV (CPE inhibition) [5, 10]: ≤ 0.001
- Antiviral effect on VSV (CPE inhibition) ([5]; HC 10 μg/ml, fraction): ≤ 0.001
- Antiviral effect on VSV (CPE inhibition) ([5]; HC 100 μg/ml, fraction): 0.039
- Antiviral effect on VSV (CPE inhibition) ([5]; HC 500 μg/ml, fraction): ≤ 0.001
- Antiviral effect on VSV (CPE inhibition) ([5]; HC 1000 μg/ml, fraction): 0.002

Molecule: cyanocobalamin [Vitamin B12]
- mean clinical scores / clinical signs (FIG. 5) (ND4 mouse model): significant attenuation of mean clinical scores
- clinical signs of MS (FIG. 1) (ND4 mouse model; vitamin B12 (cyanocobalamin) 15 mg/kg weekly, interferon-beta 1a 5000 IU tri-weekly, from 3 months of age): attenuation of clinical signs
- toxicity in animals [6]: no toxicity has been found
- Relative Amount of GFAP (+/−SD) (GFAP [7]): 2.8 +/− 0.1
- Measure of Proliferative Activity (Absorbance at 490 nm) [8, 11]: 0.2985
- viral activity (HBV) ([3]; HepG2.2.15, vitamin B12 = hydroxocobalamin (HC)): not
- Relative Amount of GFAP (+/−SD) (GFAP [9]; EAE brain homogenates, Vitamin B12 15 mg/kg, Normal 1.0, untreated EAE 4.2): 4.2 +/− 0.2
- levels of activated astrocytes and levels of GFAP (GFAP [9]; EAE mice treated as in Example 2): not effective in decreasing the levels of GFAP
- Anti-viral activity (protection of CPE) / viral activity, VSV [5]: significantly increased

Molecule: C/C1=C2/[N-][C@H]([C@H](CC(N)=O)[C@@]2(C)CCC(=O)NC[C@H](C)OP(=O)([O-])O[C@H]2[C@@H](O)[C@@H](n3cnc4cc(C)c(C)cc43)O[C@@H]2CO)[C@]2(C)N=C(/C(C)=C3N=C(/C=C4N=C1[C@@H](CCC(N)=O)C\4(C)C)[C@@H](CCC(N)=O)[C@]\3(C)CC(N)=O)[C@@H](CCC(N)=O)[C@]2(C)CC(N)=O.[CH3-].[Co+3] [vitamin B12 (methylcobalamin), methylcobalamin]
- Measure of Proliferative Activity (Absorbance at 490 nm) [8, 11]: decrease in proliferative activity

Molecule: interferon-alpha
- Antiviral effect on HSV-2 (CPE inhibition) ([2]; interferon 5 IU/ml, fraction): 0.093
- Antiviral effect on HSV-2 (CPE inhibition) ([2]; interferon 10 IU/ml, fraction): 0.139
- Antiviral effect on HSV-2 (CPE inhibition) ([2]; interferon 50 IU/ml, fraction): 0.218
- Antiviral effect on HSV-2 (CPE inhibition) ([2]; interferon 100 IU/ml, fraction): 0.282
- Antiviral effect on HSV-2 (CPE inhibition) ([2]; interferon 500 IU/ml, fraction): 0.271
- Anti-viral activity (protection of CPE) / viral activity, VSV [5]: significantly increased
- Antiviral effect on VSV (CPE inhibition) ([5]; interferon 5 IU/ml, fraction): 0.296
- Antiviral effect on VSV (CPE inhibition) ([5]; interferon 10 IU/ml, fraction): 0.387
- Antiviral effect on VSV (CPE inhibition) ([5]; interferon 50 IU/ml, fraction): 0.950
- Antiviral effect on VSV (CPE inhibition) ([5]; interferon 100 IU/ml, fraction): 0.996
- Antiviral effect on VSV (CPE inhibition) ([5]; interferon 500 IU/ml, fraction): 0.942

B1: Mouse Interferon-beta: mouse interferon-beta used on mouse astrocytoma cells (protein, UniProt P01575 22-182, looked up)
Interferon beta: INYKQLQLQERTNIRKCQELLEQLNGKINLTYRADFKIPMEMTEKMQKSYTAFAIQEMLQNVFLVFRNNFSSTGWNETIVVRLLDELHQQTVFLKTVLEEKQEERLTWEMSSTALHLKSYYWRVQRYLKLMKYNSYAWMVVRAEIFRNFLIIRRLTRNFQN
- Measure of Proliferative Activity (Absorbance at 490 nm) ([8]; Mouse Interferon-beta 500 IU/ml): 0.3855
- Measure of Proliferative Activity (Absorbance at 490 nm) ([8]; Mouse Interferon-beta 500 IU/ml, listed as mice interferon-beta): decrease in proliferative activity
